# Results: patent publication US20250161234A1, “METHODS OF USE OF BENZALDEHYDE COMPOSITIONS” (priority 2022, published 2025)
# Assays:
# Type in all cases: cell-based
# [1] = system: five different strains of bacteria; test: Successive dilution in TSB, statements on all five strains
# Description: (§1) The following is a summary of an experiment using the benzaldehyde composition as disclosed herein to destroy bacteria, for example to test it as a preservative of food. The benzaldehyde was tested for its ability to inhibit the growth of microbes at ten different concentrations of the benzaldehyde, each concentration was half of the previous concentrations as a result of a dilution using TSB as the medium. The following concentrations were tested by successive dilutions of 100% benzaldehyde: 50%, 25%, 12.5%, 6.25%, 3.125%, 1.5625%, 0.78125%, 0.390625%, 0.195313%, 0.097656%. Each concentration appears in the chart below for each of five different strains of bacteria. The experiment was conducted twice and therefore generated two charts (see below). […] Thus, the minimum concentration needed to substantially eliminate the bacterial strain can be deduced from the experiment.
# (§2) The initial concentration of the microbes was approximately […]. The microbes studied are listed below. Enterococcus feaclis • 2. Staphylococcus aureus • 3. Pseudomonas aeruginosa • 4. E. coli • 5. Klebsiella pneomoniae
# A further experiment was conducted in which instead of starting from a 100% concentration, we started from a 10% concentration of benzaldehyde and performed successive dilutions. […] This experimental was not repeated after receiving the results.
# E. coli [2] = test: Successive dilution in TSB, growth inhibition; design: key: The presence of a “+” in the box indicates that the particular bacteria was found; the presence of a “−” indicates that the particular bacteria was not found; settings: benzaldehyde concentration given as 2, in TSB; Table 1
# Pseudomonas aeruginosa = test: Successive dilution in TSB, growth inhibition; design: key: The presence of a “+” in the box indicates that the particular bacteria was found; the presence of a “−” indicates that the particular bacteria was not found
# Description: as §1, §2
# Staphylococcus aureus = test: Successive dilution in TSB, growth inhibition; design: key: The presence of a “+” in the box indicates that the particular bacteria was found; the presence of a “−” indicates that the particular bacteria was not found
# Description: as §1, §2
# Enterococcus feaclis = test: Successive dilution in TSB, growth inhibition; design: key: The presence of a “+” in the box indicates that the particular bacteria was found; the presence of a “−” indicates that the particular bacteria was not found
# Description: as §1, §2
# E. coli [3] = test: Successive dilution in TSB, growth inhibition; design: key: The presence of a “+” in the box indicates that the particular bacteria was found; the presence of a “−” indicates that the particular bacteria was not found
# Description: as §1, §2
# Klebsiella pneomoniae = test: Successive dilution in TSB, growth inhibition; design: key: The presence of a “+” in the box indicates that the particular bacteria was found; the presence of a “−” indicates that the particular bacteria was not found
# Description: as §1, §2
# [4] = conclusion from the dilution experiments
# [5] = benzaldehyde 0.097656% in TSB, Table 1
# [6] = benzaldehyde 0.097656% in TSB, Table 2
# [7] = benzaldehyde 0.195313% in TSB, Table 1
# [8] = benzaldehyde 0.195313% in TSB, Table 2
# [9] = benzaldehyde 0.390625% in TSB, Table 1
# [10] = benzaldehyde 0.390625% in TSB, Table 2
# [11] = benzaldehyde 0.78125% in TSB, Table 1
# [12] = benzaldehyde 0.78125% in TSB, Table 2
# [13] = benzaldehyde 1.5625% in TSB, Table 1
# [14] = benzaldehyde 1.5625% in TSB, Table 2
# [15] = benzaldehyde 3.125% in TSB, Table 1
# [16] = benzaldehyde 3.125% in TSB, Table 2
# [17] = benzaldehyde 6.25% in TSB, Table 1
# [18] = benzaldehyde 6.25% in TSB, Table 2
# [19] = benzaldehyde 12.5% in TSB, Table 1
# [20] = benzaldehyde 12.5% in TSB, Table 2
# [21] = benzaldehyde 25% in TSB, Table 2
# [22] = benzaldehyde 50% in TSB, Table 1
# [23] = benzaldehyde 50% in TSB, Table 2
# [24] = benzaldehyde concentration given as 2, in TSB, Table 1
structure (smiles),measurement,setting,value
O=Cc1ccccc1 [Benzaldehyde],benzaldehyde concentration giving a broad spectrum effect,[1]; [4],≥ 12.5%
same,benzaldehyde concentration giving an antibacterial effect against at least some bacteria,[1]; [4],≥ 1.5625%
same,detection of bacteria,"[1]; further experiment started from 10% benzaldehyde, first dilution to 5%, all strains",positive detection of bacteria for all strains
same,bacteria found (+) / not found (−),E. coli [2],−
same,bacteria found (+) / not found (−),Pseudomonas aeruginosa; [5],+
same,bacteria found (+) / not found (−),Pseudomonas aeruginosa; [6],+
same,bacteria found (+) / not found (−),Pseudomonas aeruginosa; [7],+
same,bacteria found (+) / not found (−),Pseudomonas aeruginosa; [8],+
same,bacteria found (+) / not found (−),Pseudomonas aeruginosa; [9],+
same,bacteria found (+) / not found (−),Pseudomonas aeruginosa; [10],+
same,bacteria found (+) / not found (−),Pseudomonas aeruginosa; [11],+
same,bacteria found (+) / not found (−),Pseudomonas aeruginosa; [12],+
same,bacteria found (+) / not found (−),Pseudomonas aeruginosa; [13],−
same,bacteria found (+) / not found (−),Pseudomonas aeruginosa; [14],−
same,bacteria found (+) / not found (−),Pseudomonas aeruginosa; [15],−
same,bacteria found (+) / not found (−),Pseudomonas aeruginosa; [16],−
same,bacteria found (+) / not found (−),Pseudomonas aeruginosa; [17],−
same,bacteria found (+) / not found (−),Pseudomonas aeruginosa; [18],−
same,bacteria found (+) / not found (−),Pseudomonas aeruginosa; [19],−
same,bacteria found (+) / not found (−),Pseudomonas aeruginosa; [20],−
same,bacteria found (+) / not found (−),Pseudomonas aeruginosa; [21],−
same,bacteria found (+) / not found (−),Pseudomonas aeruginosa; [22],−
same,bacteria found (+) / not found (−),Pseudomonas aeruginosa; [23],−
same,bacteria found (+) / not found (−),"Pseudomonas aeruginosa; in TSB, Table 1",−
same,bacteria found (+) / not found (−),Staphylococcus aureus; [5],+
same,bacteria found (+) / not found (−),Staphylococcus aureus; [6],+
same,bacteria found (+) / not found (−),Staphylococcus aureus; [7],+
same,bacteria found (+) / not found (−),Staphylococcus aureus; [8],+
same,bacteria found (+) / not found (−),Staphylococcus aureus; [9],+
same,bacteria found (+) / not found (−),Staphylococcus aureus; [10],+
same,bacteria found (+) / not found (−),Staphylococcus aureus; [11],+
same,bacteria found (+) / not found (−),Staphylococcus aureus; [12],+
same,bacteria found (+) / not found (−),Staphylococcus aureus; [13],+
same,bacteria found (+) / not found (−),Staphylococcus aureus; [14],−
same,bacteria found (+) / not found (−),Staphylococcus aureus; [15],−
same,bacteria found (+) / not found (−),Staphylococcus aureus; [16],−
same,bacteria found (+) / not found (−),Staphylococcus aureus; [17],−
same,bacteria found (+) / not found (−),Staphylococcus aureus; [18],−
same,bacteria found (+) / not found (−),Staphylococcus aureus; [19],−
same,bacteria found (+) / not found (−),Staphylococcus aureus; [20],−
same,bacteria found (+) / not found (−),Staphylococcus aureus; [21],−
same,bacteria found (+) / not found (−),Staphylococcus aureus; [22],−
same,bacteria found (+) / not found (−),Staphylococcus aureus; [23],−
same,bacteria found (+) / not found (−),Staphylococcus aureus; [24],−
same,bacteria found (+) / not found (−),Enterococcus feaclis; [5],+
same,bacteria found (+) / not found (−),Enterococcus feaclis; [6],+
same,bacteria found (+) / not found (−),Enterococcus feaclis; [7],+
same,bacteria found (+) / not found (−),Enterococcus feaclis; [8],+
same,bacteria found (+) / not found (−),Enterococcus feaclis; [9],+
same,bacteria found (+) / not found (−),Enterococcus feaclis; [10],+
same,bacteria found (+) / not found (−),Enterococcus feaclis; [11],+
same,bacteria found (+) / not found (−),Enterococcus feaclis; [12],+
same,bacteria found (+) / not found (−),Enterococcus feaclis; [13],+
same,bacteria found (+) / not found (−),Enterococcus feaclis; [14],+
same,bacteria found (+) / not found (−),Enterococcus feaclis; [15],+
same,bacteria found (+) / not found (−),Enterococcus feaclis; [16],+
same,bacteria found (+) / not found (−),Enterococcus feaclis; [17],+
same,bacteria found (+) / not found (−),Enterococcus feaclis; [18],+
same,bacteria found (+) / not found (−),Enterococcus feaclis; [19],−
same,bacteria found (+) / not found (−),Enterococcus feaclis; [20],−
same,bacteria found (+) / not found (−),Enterococcus feaclis; [21],−
same,bacteria found (+) / not found (−),Enterococcus feaclis; [22],−
same,bacteria found (+) / not found (−),Enterococcus feaclis; [23],−
same,bacteria found (+) / not found (−),Enterococcus feaclis; [24],−
same,bacteria found (+) / not found (−),E. coli [3]; [5],+
same,bacteria found (+) / not found (−),E. coli [3]; [6],+
same,bacteria found (+) / not found (−),E. coli [3]; [7],+
same,bacteria found (+) / not found (−),E. coli [3]; [8],+
same,bacteria found (+) / not found (−),E. coli [3]; [9],+
same,bacteria found (+) / not found (−),E. coli [3]; [10],+
same,bacteria found (+) / not found (−),E. coli [3]; [11],+
same,bacteria found (+) / not found (−),E. coli [3]; [12],+
same,bacteria found (+) / not found (−),E. coli [3]; [13],−
same,bacteria found (+) / not found (−),E. coli [3]; [14],−
same,bacteria found (+) / not found (−),E. coli [3]; [15],−
same,bacteria found (+) / not found (−),E. coli [3]; [16],−
same,bacteria found (+) / not found (−),E. coli [3]; [17],−
same,bacteria found (+) / not found (−),E. coli [3]; [18],−
same,bacteria found (+) / not found (−),E. coli [3]; [19],−
same,bacteria found (+) / not found (−),E. coli [3]; [20],−
same,bacteria found (+) / not found (−),E. coli [3]; [21],−
same,bacteria found (+) / not found (−),E. coli [3]; [22],−
same,bacteria found (+) / not found (−),E. coli [3]; [23],−
same,bacteria found (+) / not found (−),Klebsiella pneomoniae; [5],+
same,bacteria found (+) / not found (−),Klebsiella pneomoniae; [6],+
same,bacteria found (+) / not found (−),Klebsiella pneomoniae; [7],+
same,bacteria found (+) / not found (−),Klebsiella pneomoniae; [8],+
same,bacteria found (+) / not found (−),Klebsiella pneomoniae; [9],+
same,bacteria found (+) / not found (−),Klebsiella pneomoniae; [10],−
same,bacteria found (+) / not found (−),Klebsiella pneomoniae; [11],+
same,bacteria found (+) / not found (−),Klebsiella pneomoniae; [12],−
same,bacteria found (+) / not found (−),Klebsiella pneomoniae; [13],−
same,bacteria found (+) / not found (−),Klebsiella pneomoniae; [14],−
same,bacteria found (+) / not found (−),Klebsiella pneomoniae; [15],−
same,bacteria found (+) / not found (−),Klebsiella pneomoniae; [16],−
same,bacteria found (+) / not found (−),Klebsiella pneomoniae; [17],−
same,bacteria found (+) / not found (−),Klebsiella pneomoniae; [18],−
same,bacteria found (+) / not found (−),Klebsiella pneomoniae; [19],−
same,bacteria found (+) / not found (−),Klebsiella pneomoniae; [20],−
same,bacteria found (+) / not found (−),Klebsiella pneomoniae; [21],−
same,bacteria found (+) / not found (−),Klebsiella pneomoniae; [22],−
same,bacteria found (+) / not found (−),Klebsiella pneomoniae; [23],−
same,bacteria found (+) / not found (−),Klebsiella pneomoniae; [24],−
